In patent publication US11981661B2, “Heterocyclic compounds” (Hoffmann-La Roche Inc., priority 2020, dated 2024):

Each compound was assayed against T1, MAGL (Homo sapiens, UniProt Q99685) (assay: 2-AG assay (MAGL inhibitory activity, hydrolysis of 2-arachidonoylglycerol followed by mass spectrometry)). Details: 50 pM MAGL, 8 μM 2-arachidonoylglycerol, 15 min preincubation, 30 min incubation at RT, concentration range 12.5 μM to 0.8 pM.
T1 sequence (Q99685 1-303): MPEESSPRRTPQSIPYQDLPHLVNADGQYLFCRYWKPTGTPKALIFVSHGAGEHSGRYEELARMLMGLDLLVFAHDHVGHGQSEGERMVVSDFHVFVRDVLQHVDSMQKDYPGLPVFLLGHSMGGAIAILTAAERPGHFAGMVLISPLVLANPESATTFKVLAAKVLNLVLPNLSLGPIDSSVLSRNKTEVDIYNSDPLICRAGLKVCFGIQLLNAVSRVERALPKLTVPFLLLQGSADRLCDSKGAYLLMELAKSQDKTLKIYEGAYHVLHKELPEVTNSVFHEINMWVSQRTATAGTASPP
Assay type: biochemical
In short: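 Activity derived from the arachidonic acid/d8-arachidonic acid MS intensity ratio after acetonitrile quench. Reaction: 8 μM 2-AG substrate with 50 pM MAGL, 30 min at RT, following 15 min RT compound preincubation; buffer 50 mM TRIS, 1 mM EDTA, 0.01% Tween; final compound range 12.5 μM to 0.8 pM.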
`O=C1N[C@H](CCC(=O)N2CC3(CCN(Cc4cccc(S(=O)(=O)C(F)(F)F)c4)CC3)C2)CO1` [Example 195, (4R)-4-[3-Oxo-3-[7-[[3-(trifluoro-methylsulfonyl)phenyl]methyl]-2,7-diazaspiro [3.5]nonan-2-yl]propyl] oxazolidin-2-one] gave an IC50 of 28 nM.
`O=C1N[C@H](CCC(=O)N2CC3(CCN(Cc4ccc(C(F)(F)F)nc4)CC3)C2)CO1` [Example 196, (4R)-4-[3-Oxo-3-[7-[[6-(trifluoro-methyl)-3-pyridyl]methyl]-2,7-diazaspiro [3.5]nonan-2-yl]propyl] oxazolidin-2-one] showed an IC50 of 507 nM.
`O=C1N[C@H](CCC(=O)N2CC3(CCN(Cc4ccc(C(F)(F)F)cn4)CC3)C2)CO1` [Example 197, (4R)-4-[3-Oxo-3-[7-[[5-(trifluoro-methyl)-2-pyridyl]methyl]-2,7-diazaspiro [3.5]nonan-2-yl]propyl] oxazolidin-2-one] gave an IC50 of 324 nM.
`O=C1N[C@H](CCC(=O)N2CC3(CCC(Cc4ccc(C(F)(F)F)nc4)C3)C2)CO1` (stereo partly drawn) [Example 198, (4R)-4-[3-Oxo-3-[6-[[6-(trifluoro-methyl)-3-pyridyl]methyl]-2-azaspiro[3.4]octan-2-yl]propyl]oxazolidin-2-one] gave an IC50 of 73 nM.
For `COC(=O)c1cc(Cl)ccc1Oc1ccc(C2CN(C(=O)CC[C@@H]3COC(=O)N3)C2)cn1` [Example 199, Methyl 5-chloro-2-[[5-[1-[3-[(4R)-2-oxooxazolidin-4-yl]propanoyl]azetidin-3-yl]-2-pyridyl]oxy]benzoate], the IC50 was 14 nM.
`O=C1N[C@H](CCC(=O)N2CC(c3ccc([C@H]4C[C@@H](C(F)(F)F)C4)nc3)C2)CO1` [Example 202, Cis-(4R)-4-[3-Oxo-3-[3-[6-[3-(trifluoromethyl)cyclobutyl]-3-pyridyl]azetidin-1-yl]propyl]oxazolidin-2-one] was tested, and the IC50 was 37 nM.
`O=C1N[C@H](CCC(=O)N2CC(c3ccc([C@H]4C[C@H](C(F)(F)F)C4)nc3)C2)CO1` [Example 203, Trans-(4R)-4-[3-Oxo-3-[3-[6-[3-(trifluoromethyl)cyclobutyl]-3-pyridyl]azetidin-1-yl]propyl]oxazolidin-2-one] gave an IC50 of 75 nM.
With `O=C1N[C@H](CCC(=O)N2CC(c3ccc(N4CCC(O)(C(F)(F)F)C4)nc3)C2)CO1` (stereo partly drawn) [Example 205, (+)- or (−)-(4R)-4-[3-[3-[6-[3-Hydroxy-3-(trifluoromethyl)pyrrolidin-1-yl]-3-pyridyl]azetidin-1-yl]-3-oxo-propyl]oxazolidin-2-one] the IC50 was 170 nM.
Compound `O=C1N[C@H](CCC(=O)N2CC(c3ccc(N4CCC(O)(C(F)(F)F)C4)nc3)C2)CO1` (stereo partly drawn) [Example 207, (+)- or (−)-(4R)-4-[3-[3-[6-[3-Hydroxy-3-(trifluoromethyl)pyrrolidin-1-yl]-3-pyridyl]azetidin-1-yl]-3-oxo-propyl]oxazolidin-2-one] has an IC50 of 17 nM.
`CS(=O)(=O)c1cc(Cl)ccc1-c1ccc(C2CN(C(=O)NCC3COC(=O)N3)C2)cc1` (centres unmarked) [Example 212, 3-[4-(4-Chloro-2-methylsulfonyl-phenyl)phenyl]-N-[(2-oxooxazolidin-4-yl)methyl]azetidine-1-carboxamide] was tested, and the IC50 was 25 nM.
`O=C1NCC(CCC(=O)N2CC3(CC(Cc4ccc(C(F)(F)F)nc4)C3)C2)N1` (centres unmarked) [Example 213, 4-[3-Oxo-3-[6-[[6-(trifluoromethyl)-3-pyridyl]methyl]-2-azaspiro[3.3]heptan-2-yl]propyl]imidazolidin-2-one] showed an IC50 of 2250 nM.
`O=C1NCC(CCC(=O)N2CC(c3ccc(C4(C(F)(F)F)CC4)cc3)C2)N1` (centres unmarked) [Example 214, 4-[3-Oxo-3-[3-[4-[1-(trifluoromethyl)cyclopropyl]phenyl]azetidin-1-yl]propyl]imidazolidin-2-one] was tested, and the IC50 was 157 nM.
`O=C1NCC(CCC(=O)N2CC(OCc3ccc(C(F)(F)F)cc3F)C2)N1` (centres unmarked) [Example 215, 4-[3-[3-[[2-Fluoro-4-(trifluoromethyl)phenyl]methoxy]azetidin-1-yl]-3-oxo-propyl]imidazolidin-2-one] was tested, and the IC50 was 860 nM.
In the case of `CS(=O)(=O)c1cc(Cl)ccc1-c1ccc(C2CN(C(=O)CCC3CNC(=O)N3)C2)cc1` (centres unmarked) [Example 216, 4-[3-[3-[4-(4-Chloro-2-methylsulfonyl-phenyl)phenyl]azetidin-1-yl]-3-oxo-propyl]imidazolidin-2-one], the IC50 is reported as 68 nM.
